For series [1], the system named is patients with Relapsing-remitting Multiple Sclerosis. The experiment in a line: Study of oral fingolimod 0.5 mg/day or 1.25 mg/day vs interferon beta1-a in patients with RRMS. Type of series: in vivo, human. The method, then:
The patients are seen clinically every month for 3 months and every 3 months thereafter. The Expanded Disability Status Scale (EDSS) is performed every 3 months, the MS Functional Composite (MSFC) every 6 months, and MRI annually. Monitoring by ophthalmic examination, dermatologic examination, pulmonary function tests, chest X-ray and/or CT, Holter monitoring, and echocardiography are performed. Participants who completed 1 year on treatment are offered an optional extension phase.

The test system of series [2] is Patients with moderate asthma. The experiment in a line: Study of FTY720 vs placebo in patients with moderate asthma (pulmonary function tests, safety). The class given is in vivo, human. The following applies: daily dosage of 0.5 mg, 10 day treatment. The method, then: Patients with moderate asthma are divided into 3 dosing cohorts of 12 patients each. In each cohort, the 12 patients are randomized to FTY720 (0.5 mg, 1.25 mg, and 2.5 mg in cohorts 1, 2, and 3 respectively) or placebo in a 3:1 ratio resulting in 9 patients treated with FTY720 at each dose level and 9 patients treated with placebo. The study consists of a screening period of between 12 and 26 days, baseline and a 10 day treatment period followed by a study completion evaluation (performed 1-7 days after the last dose). Two screening visits are performed, the initial Screening visit and a second visit at Day −7 (+/−1 day). […] Short-acting […] agonist use prior to treatment with study medication is also recorded in this 14 day period. […] PFT profiling is assessed at 7 time points during the visit and routine baseline evaluations are performed. On Day 1, patients are randomized in a 3:1 ratio to FTY720 or placebo and PFT profiling is assessed at 8 time points (namely pre-dose, then at 1, 2, 3, 4, 5, 6 and 12 hours post-dose). PFT assessments are also performed on Days 2, 3, 7 (all single time points assessed at approximately the same clock time as the 6 hours post-dose PFT on Day 1) and Day 10 (7 time points, namely pre-dose and then at 1, 2, 3, 4, 5 and 6 hours post-dose). […] The magnitude of the bronchoconstriction is primarily assessed by the baseline-adjusted FEV1 AUC0-6 h on Day 1. […]

Series [3] relates to Cardiac Rate and Rhythm in Healthy Patients. As to conditions: administration of 1.25 mg of FTY720; healthy subjects; cited from earlier work.
[4] abbreviates: both fingolimod groups (0.5 and 1.25 mg/day), month 12.

On to `CCCCCCCCc1ccc(CCC(N)(CO)CO)cc1.Cl` [Fingolimod, 2-amino-2-[2-(4-octylphenyl)ethyl]propane-1,3-diol], for which the “proportion of relapse-free patients” value in series [1] (RRMS patients, fingolimod, dose not stated) came to 83%. Further, the “reduction in relapses vs interferon beta1-a” value in series [1] (RRMS patients, higher dose (1.25 mg/day)) is on record as 38%. For the same molecule, in series [1] (RRMS patients, lower dose (0.5 mg/day)), the “reduction in relapses vs interferon beta1-a” value came to 52%. The molecule also displayed an Annualized relapse rate in series [1] (RRMS patients, oral fingolimod 0.5 mg/day) of 0.16. Besides, the Annualized relapse rate in series [1] (RRMS patients, oral fingolimod 1.25 mg/day) worked out at 0.20. Besides, in series [1] (setting [4]), the “MRI lesion activity: number of gadolinium-enhancing T1 lesions” value was “reduction” and the “MRI lesion activity: number of new or newly enlarging T2 lesions” value is listed as “reduction”. In series [1] (fingolimod 0.5 mg/d), the Basal-cell carcinoma is on record as 3 (0.7) n (%), the Breast cancer is 2 (0.5) n (%), the Malignant melanoma is recorded as 3 (0.7) n (%) and the Squamous-cell carcinoma is listed as 0 n (%). In series [1] (fingolimod 1.25 mg/day), the Basal-cell carcinoma is 2 (0.5) n (%), the Breast cancer is 2 (0.5) n (%), the Malignant melanoma was 0 n (%) and the Squamous-cell carcinoma is given as 0 n (%). Further, the safety and tolerability entry in series [2] is “safe and well tolerated”. Moreover, the “decrease in heart rate” value in series [3] is on record as “approximately 8 beets/min”.
